Reference: patent US9452980B2, “Substituted benzamides” (Hoffmann-La Roche Inc., priority 2009, dated 2016)
Where a name gives a salt, the structure may show the parent alone. Read-outs that look alike come from different tables or passages of the source.

Experiments:
rat TAAR1 = rat TAAR1 (Rattus norvegicus (Rat), UniProt Q923Y9); experiment: Radioligand binding assay on rat TAAR1; conditions: read-out: Ki (μM) rat
In short: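 Membranes from HEK293 cells stably expressing rat TAAR1, with Kd checked per batch by saturation. Competition with ³H-(S)-4-[(ethyl-phenyl-amino)-methyl]-4,5-dihydro-oxazol-2-ylamine, compounds 10 pM–10 μM in duplicate, 1 hr at 4 °C. Filtration then scintillation counting; nonspecific binding defined with 10 μM unlabeled ligand.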

mouse TAAR1 = mouse TAAR1 (Mus musculus (Mouse), UniProt Q923Y8); experiment: Radioligand binding assay on mouse TAAR1; conditions: read-out: Ki (μM) mouse
Chain of mouse TAAR1 (Q923Y8 whole entry): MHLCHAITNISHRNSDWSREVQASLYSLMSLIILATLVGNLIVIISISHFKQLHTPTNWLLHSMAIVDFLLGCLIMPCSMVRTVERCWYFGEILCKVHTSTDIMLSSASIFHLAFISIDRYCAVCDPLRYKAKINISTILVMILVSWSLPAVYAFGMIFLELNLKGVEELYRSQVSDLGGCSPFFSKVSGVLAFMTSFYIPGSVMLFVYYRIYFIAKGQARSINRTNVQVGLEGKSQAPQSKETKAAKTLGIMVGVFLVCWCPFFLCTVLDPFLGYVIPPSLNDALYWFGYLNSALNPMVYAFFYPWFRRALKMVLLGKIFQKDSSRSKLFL
In short: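 Membranes were from HEK293 cells stably expressing mouse TAAR1. Compounds from 10 pM to 10 μM, in duplicate, competed with [3H]-(S)-4-[(ethyl-phenyl-amino)-methyl]-4,5-dihydro-oxazol-2-ylamine for 1 h at 4 °C. Nonspecific binding was defined with 10 μM unlabelled ligand, and bound radioactivity was read by filtration and scintillation.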

[1] = rat TAAR1, HEK-293 membranes, second value of cell mouse/rat
[2] = mouse TAAR1, HEK-293 membranes, first value of cell mouse/rat

Chain of rat TAAR1 (Q923Y9 whole entry): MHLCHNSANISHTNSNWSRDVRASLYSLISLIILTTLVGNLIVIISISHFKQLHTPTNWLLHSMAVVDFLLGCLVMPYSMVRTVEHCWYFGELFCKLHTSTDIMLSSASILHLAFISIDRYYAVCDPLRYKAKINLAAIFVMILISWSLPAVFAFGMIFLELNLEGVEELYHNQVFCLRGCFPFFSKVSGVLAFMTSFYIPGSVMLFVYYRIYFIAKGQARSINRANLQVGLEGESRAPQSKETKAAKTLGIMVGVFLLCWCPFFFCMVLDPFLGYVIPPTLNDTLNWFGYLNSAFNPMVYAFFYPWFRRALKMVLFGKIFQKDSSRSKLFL

Row | SMILES | Ki (rat TAAR1; [1]) | Ki (mouse TAAR1; [2]) | Ki (rat TAAR1) | Ki (mouse TAAR1)
1 | O=C(Nc1ccc(C2CNCCO2)cc1)c1cncc(Cl)c1 (racemic) [Example 210, (RS)-5-chloro-N-(4-(morpholin-2-yl)phenyl)nicotinamide hydrochloride] | 0.0062 µM | 0.0436 µM | – | –
2 | O=C(Nc1ccc([C@H]2CNCCO2)cc1)c1ccc(Cl)cc1 [Example 144, 4-Chloro-N—((S)-4-morpholin-2-yl-phenyl)-benzamide hydrochloride] | – | – | 0.0011 µM | 0.0188 µM
3 | O=C(Nc1ccc(C2CNCCO2)cc1)c1ccc(Cl)nc1 (racemic) [Example 193, (RS)-6-chloro-N-(4-(morpholin-2-yl)phenyl)nicotinamide hydrochloride] | – | 0.0406 µM | 0.0034 µM | –
4 | Cc1ccc(C(=O)Nc2ccc(C3CCNC3)cc2)cc1 (racemic) [Example 182, (RS)-4-Methyl-N-(4-(pyrrolidin-3-yl)phenyl)benzamide hydrochloride] | 0.0025 µM | – | – | 0.0253 µM
5 | O=C(Nc1ccc(C2CCCNC2)cc1)c1ccc(OCC(F)(F)F)cn1 (racemic) [Example 191, (RS)—N-(4-(Piperidin-3-yl)phenyl)-5-(2,2,2-trifluoroethoxy)picolinamide hydrochloride] | 0.0074 µM | 0.011 µM | – | –
6 | CSc1ccc(C(=O)Nc2ccc(C3CNCCO3)cc2)cc1 (racemic) [Example 216, (RS)-4-(Methylthio)-N-(4-(morpholin-2-yl)phenyl)benzamide hydrochloride] | – | 0.0176 µM | 0.0012 µM | –
7 | O=C(NCc1ccc([C@@H]2CNCCO2)cc1)c1ccc(C(F)(F)F)nc1 [Example 321, (R)—N-(4-(Morpholin-2-yl)benzyl)-6-(trifluoromethyl)nicotinamide hydrochloride] | – | – | 0.026 µM | 1.31 µM
8 | O=C(Nc1ccc(CCC2CCCCN2)cc1)c1ccc(F)cc1 (racemic) [Example 170, (RS)-4-Fluoro-N-(4-(2-(piperidin-2-yl)ethyl)phenyl)benzamide hydrochloride] | 0.0158 µM | 0.234 µM | – | –
9 | O=C(Nc1ccc(C2CNCCO2)cc1)c1ccc(OCc2ccccc2)cc1 (racemic) [Example 192, (RS)-4-(benzyloxy)-N-(4-(morpholin-2-yl)phenyl)benzamide hydrochloride] | 0.0113 µM | 0.0052 µM | – | –
10 | CCOc1ccc(C(=O)Nc2ccc(C3CCNC3)cc2)cc1 (racemic) [Example 52, (RS)-4-Ethoxy-N-(4-pyrrolidin-3-yl-phenyl)-benzamide hydrochloride] | 0.0109 µM | 0.0017 µM | – | –

Now from value to molecule, other results behind:

Row | Ki (rat TAAR1; [1]) | Ki (mouse TAAR1; [2]) | SMILES | Ki (rat TAAR1) | Ki (mouse TAAR1)
11 | 0.0011 µM | 0.0026 µM | O=C(Nc1ccc(C2CNCCO2)cc1)c1ccc(Oc2ccc(Cl)cc2)cc1 (racemic) [Example 206, (RS)-4-(4-Chlorophenoxy)-N-(4-(morpholin-2-yl)phenyl)benzamide hydrochloride] | – | –
12 | 0.0257 µM | 0.0056 µM | O=C(Nc1ccc(C2CCNC2)cc1)c1ccc(-n2cccn2)nc1 (racemic) [Example 73, (RS)-6-Pyrazol-1-yl-N-(4-pyrrolidin-3-yl-phenyl)-nicotinamide hydrochloride] | – | –
13 | 0.238 µM | 1.16 µM | O=C(Nc1ccc(C2CNCCO2)cc1)c1ccc(O)cc1 (racemic) [Example 199, (RS)-4-Hydroxy-N-(4-(morpholin-2-yl)phenyl)benzamide hydrochloride] | – | –
14 | 0.012 µM | 1.17 µM | CCOc1ccc(C(=O)Nc2ccc([C@@H]3CCCNC3)cc2)cn1 [Example 256, (S)-6-Ethoxy-N-(4-(piperidin-3-yl)phenyl)nicotinamide] | – | –
15 | 0.0858 µM | 0.0005 µM | CN1CCC(c2ccc(NC(=O)c3ccc(Cl)cc3)cc2)C1 (racemic) [Example 32, (RS)-4-Chloro-N-[4-(1-methyl-pyrrolidin-3-yl)-phenyl]-benzamide] | – | –
16 | 0.002 µM | 0.0006 µM | CC(OC(=O)Nc1ccc(C2CCNC2)cc1)c1ccc(Cl)cc1 (racemic) [Example 127, (RS)-(4-Pyrrolidin-3-yl-phenyl)-carbamic acid (RS)-1-(4-chloro-phenyl)-ethyl ester] | – | –
